Target: Neuronal acetylcholine receptor subunit alpha-7 (Homo sapiens, UniProt P36544)
Assay: Partial agonist activity at human alpha7 nAChR expressed in Xenopus laevis oocytes assessed as induction of maximum current response administered for 12 secs followed by washout period for 181 secs by voltage clamp technique

Chain of Neuronal acetylcholine receptor subunit alpha-7 (P36544 whole entry): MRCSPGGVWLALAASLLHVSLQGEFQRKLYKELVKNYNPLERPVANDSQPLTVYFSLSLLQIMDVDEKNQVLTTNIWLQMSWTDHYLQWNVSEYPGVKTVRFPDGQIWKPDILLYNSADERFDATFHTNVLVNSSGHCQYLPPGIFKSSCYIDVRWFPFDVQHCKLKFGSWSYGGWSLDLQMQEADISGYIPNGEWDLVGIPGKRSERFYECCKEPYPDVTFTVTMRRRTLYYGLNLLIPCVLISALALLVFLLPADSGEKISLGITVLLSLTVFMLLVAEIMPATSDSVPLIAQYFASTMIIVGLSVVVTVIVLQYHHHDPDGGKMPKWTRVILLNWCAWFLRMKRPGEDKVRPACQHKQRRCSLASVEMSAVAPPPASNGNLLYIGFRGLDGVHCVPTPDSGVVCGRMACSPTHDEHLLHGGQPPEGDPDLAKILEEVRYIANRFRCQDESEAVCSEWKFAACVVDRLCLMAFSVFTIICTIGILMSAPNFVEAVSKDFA

CC[N+]1(CC)CCN(c2ccccc2)CC1
EC50: 221 µM

— BindingDB's records for doi:10.1021/acs.jmedchem.7b00875 (University of Florida, 2017)
